Structures can show the parent of a compound that is named as a salt.
Tested on: MV4-11, an acute myeloid leukemia cell line
Experiment: WST-8 cell viability assay (inhibition of cancer cell proliferation) in MV4-11
Type: cell-based
Settings: Homo sapiens, MV4-11 cells, 72 hours, WST-8 assay; for inhibition at 10 µM: compound at 10 μM; for IC50: final concentration 0.02 to 100 μM
Procedure: In order to confirm the inhibition of cancer cell proliferation of the compound, the WST-8 assay (Cyto X cell viability assay kit, LPS solution, Daejeon, Korea) was performed according to the manufacturer's protocol. MV4-11, an acute myeloid leukemia cell line, was inoculated into a 96-well plate at 3×10^3 per well. The cells were cultured for 24 hours, and treated with the compound at a concentration of 10 μM. After 72 hours, the culture medium was discarded and a chromatographic solution was added. Following a 1-hour incubation at 37° C., color development was observed, and the absorbance was measured at 480 nm using a Versamax microplate reader (Molecular Devices, CA, USA). In addition, in order to confirm the IC50 value of the compound in MV4-11, the cells were treated with the compound with the final concentration of 0.02 to 100 μM in the same manner as the experiment above.

SMILES	inhibition at 10 µM [%]	IC50 [µM]
CN(C)S(=O)(=O)N1CCCC(Nc2cc(NC(=O)c3ccc(C(C)(C)C)cc3)ccc2C(N)=O)C1 (stereo not shown) [Example A-3, 4-(tert-butyl)-N-(4-carbamoyl-3-((1-(N,N-dimethylsulfamoyl)piperidin-3-yl)amino)phenyl)benzamide]	87.6	6.74
CC(C)(C)c1ccc(C(=O)Nc2ccc(C(N)=O)c(NC3CCCN(S(=O)(=O)Cc4ccccc4)C3)c2)cc1 (stereo not shown) [Example A-15, N-(3-((1-(benzylsulfonyl)piperidin-3-yl)amino)-4-carbamoylphenyl)-4-(tert-butyl)benzamide]	95.9	4.1
CC(C)S(=O)(=O)N1CCCC(Nc2cc(NC(=O)c3ccc(C(C)(C)C)cc3)ccc2C(N)=O)C1 (stereo not shown) [Example A-18, 4-(tert-butyl)-N-(4-carbamoyl-3-((1-(isopropylsulfonyl)piperidin-3-yl)amino)phenyl)benzamide]	90.3	9.6
CCCCNC(=O)N1CCCC(Nc2cc(NC(=O)c3ccc(C(C)(C)C)cc3)ccc2C(=O)OC)C1 (stereo not shown) [Example B-4, methyl 4-(4-(tert-butyl)benzamido)-2-((1-(butylcarbamoyl)piperidin-3-yl)amino)benzoate]	84.6	15.3
CC(C)(C)c1ccc(C(=O)Nc2ccc(C(N)=O)c(NC3CCCN(C(=O)NC4CCCCC4)C3)c2)cc1 (stereo not shown) [Example B-9, 3-((5-(4-(tert-butyl)benzamido)-2-carbamoylphenyl)amino)-N-cyclohexylpiperidine-1-carboxamide]	94.6	2.4
CC(C)(C)c1ccc(C(=O)Nc2ccc(C(N)=O)c(NC3CCCN(C(=O)Nc4ccccc4)C3)c2)cc1 (stereo not shown) [Example B-12, 3-((5-(4-(tert-butyl)benzamido)-2-carbamoylphenyl)amino)-N-phenylpiperidine-1-carboxamide]	96.2	3.8
CC(C)(C)c1ccc(C(=O)Nc2ccc(C(N)=O)c(NC3CCCN(C(=O)NCc4cccc(F)c4)C3)c2)cc1 (stereo not shown) [Example B-15, 3-((5-(4-(tert-butyl)benzamido)-2-carbamoylphenyl)amino)-N-(3-fluorobenzyl)piperidine-1-carboxamide]	100	4.75
CCc1cccc(CC)c1NC(=O)N1CCCC(Nc2cc(NC(=O)c3ccc(C(C)(C)C)cc3)ccc2C(N)=O)C1 (stereo not shown) [Example B-18, 3-((5-(4-(tert-butyl)benzamido)-2-carbamoylphenyl)amino)-N-(2,6-diethylphenyl)piperidine-1-carboxamide]	93.7	5.32
CC(C)(C)c1ccc(C(=O)Nc2ccc(C(N)=O)c(NC3CCCN(C(=O)Nc4ccc(I)cc4)C3)c2)cc1 (stereo not shown) [Example B-24, 3-((5-(4-(tert-butyl)benzamido)-2-carbamoylphenyl)amino)-N-(4-iodophenyl)piperidine-1-carboxamide]	94	4.68
COc1cc([N+](=O)[O-])ccc1NC(=O)N1CCCC(Nc2cc(NC(=O)c3ccc(C(C)(C)C)cc3)ccc2C(N)=O)C1 (stereo not shown) [Example B-33, 3-((5-(4-(tert-butyl)benzamido)-2-carbamoylphenyl)amino)-N-(2-methoxy-4-nitrophenyl)piperidine-1-carboxamide]	80.5	
CC(C)(C)c1ccc(C(=O)Nc2ccc(C(N)=O)c(NC3CCCN(C(=O)Nc4ccc(C(F)(F)F)cc4)C3)c2)cc1 (stereo not shown) [Example B-36, 3-((5-(4-(tert-butyl)benzamido)-2-carbamoylphenyl)amino)-N-(4-(trifluoromethyl)phenyl)piperidine-1-carboxamide]	97.2	7.81
CCCCCCCCNC(=O)N1CCCC(Nc2cc(NC(=O)c3ccc(C(C)(C)C)cc3)ccc2C(N)=O)C1 (stereo not shown) [Example B-39, 3-((5-(4-(tert-butyl)benzamido)-2-carbamoylphenyl)amino)-N-octylpiperidine-1-carboxamide]	100	3.26
CC(C)(C)c1ccc(C(=O)Nc2ccc(C(N)=O)c(NC3CCCN(C(=O)c4ccccc4)C3)c2)cc1 (stereo not shown) [Example C-6, N-(3-((1-benzoylpiperidin-3-yl)amino)-4-carbamoylphenyl)-4-(tert-butyl)benzamide]	97.1	4.48
CCN1CCCC(Nc2cc(NC(=O)c3ccc(C(C)(C)C)cc3)ccc2C(=O)OC)C1 [Example D-1, methyl 4-(4-(tert-butyl)benzamido)-2-((1-ethylpiperidin-3-yl)amino)benzoate]	100	3.42
CCCCN1CCCC(Nc2cc(NC(=O)c3ccc(C(C)(C)C)cc3)ccc2C(=O)OC)C1 [Example D-4, methyl 4-(4-(tert-butyl)benzamido)-2-((1-butylpiperidin-3-yl)amino)benzoate]	97.8	2.2
CCCCN1CCCC(Nc2cc(NC(=O)c3ccc(C(C)(C)C)cc3)ccc2C(N)=O)C1 [Example D-6, 4-(tert-butyl)-N-(3-((1-butylpiperidin-3-yl)amino)-4-carbamoylphenyl)benzamide]	95.5	4.5
COC(=O)c1ccc(NC(=O)c2ccc(C(C)(C)C)cc2)cc1NC1CCCN(C)C1 [Example D-7, methyl 4-(4-(tert-butyl)benzamido)-2-((1-methylpiperidin-3-yl)amino)benzoate]	100	4.59
CN1CCCC(Nc2cc(NC(=O)c3ccc(C(C)(C)C)cc3)ccc2C(N)=O)C1 [Example D-9, 4-(tert-butyl)-N-(4-carbamoyl-3-((1-methylpiperidin-3-yl)amino)phenyl)benzamide]	100	4.3
CC(C)(C)c1ccc(C(=O)Nc2ccc(C(N)=O)c(NC3CCCNC3)c2)cc1 [Example D-10, 4-(tert-butyl)-N-(4-carbamoyl-3-(piperidin-3-ylamino)phenyl)benzamide trifluoroacetate]	70	2
CC(C)(C)c1ccc(C(=O)Nc2ccc(C(N)=O)c(NC3CCNCC3)c2)cc1 [Example D-11, 4-(tert-butyl)-N-(4-carbamoyl-3-(piperidin-4-ylamino)phenyl)benzamide trifluoroacetate]	70	1.7
COC(=O)c1ccc(NC(=O)c2ccc(C(C)(C)C)cc2)cc1NC1CCCN(Cc2ccccc2)C1 (stereo not shown) [Example E-1, methyl 2-((1-benzylpiperidin-3-yl)amino)-4-(4-(tert-butyl)benzamido)benzoate]	70.1	2.2
CC(C)(C)c1ccc(C(=O)Nc2ccc(C(=O)O)c(NC3CCCN(Cc4ccccc4)C3)c2)cc1 (stereo not shown) [Example E-2, 2-((1-benzylpiperidin-3-yl)amino)-4-(4-(tert-butyl)benzamido)benzoic acid]	71.1	9.6

Reference: patent US20260184681A1, “PIPERIDINE DERIVATIVE, SALT OF SAME, AND PHARMACEUTICAL COMPOSITION CONTAINING SAME AS ACTIVE INGREDIENT” (PHARMCADD CO., LTD., priority 2022, published 2026)
